# According to US8129367B2, “Compounds for the treatment of Hepatitis C” (Bristol-Myers Squibb Company, priority 2007, dated 2012):
# How the values were obtained:
# HCV replicon cells = test: HCV replicon FRET / luciferase assay; type: cell-based; conditions: Hepatitis C virus; 50% reduction in FRET or luciferase activity in HCV replicon cells
# Protocol: FRET Assay Preparation. The HCV FRET screening assay was performed in 96-well cell culture plates. The FRET peptide (Anaspec, Inc.) (Taliani et al., Anal. Biochem. 1996, 240, 60-67) contains a fluorescence donor, EDANS, near one end of the peptide and an acceptor, DABCYL, near the other end. The fluorescence of the peptide is quenched by […] resonance energy transfer (RET) between the donor and the acceptor, but as the NS3 protease cleaves the peptide the products are released from RET quenching and the fluorescence of the donor becomes apparent. The assay reagent was made as follows: 5× cell Luciferase cell culture lysis reagent from Promega (#E153A) diluted to 1× with dH2O, NaCl added to 150 mM final, the FRET peptide diluted to 20 μM final from a 2 mM stock.
# To prepare plates, HCV replicon cells, with or without a Renilla luciferase reporter gene, were trypsinized and plated in a 96-well plate with titrated test compounds added in columns 3 through 12; columns 1 and 2 contained a control compound (HCV control inhibitor), and the bottom row contained cells with DMSO only. The plates were then placed in a CO2 incubator at 37° C.
# Assays. Subsequent to addition of the test compounds described above (FRET Assay Preparation), at various times the plate was removed and Alamar blue solution (Trek Diagnostics, #00-100) was added to measure cellular toxicity. After reading in a Cytoflour 4000 instrument (PE Biosystems), plates were rinsed with PBS and then used for FRET assay by the addition of 30 ul of the FRET peptide assay reagent described above (FRET Assay Preparation) per well. The plate was then placed into the Cytoflour 4000 instrument which had been set to 340 excite/490 emission, automatic mode for up to 20 cycles and the plate read in a kinetic mode. Typically, the signal to noise using an endpoint analysis after the reads was at least three-fold. Alternatively, after Alamar blue reading, plates were rinsed with PBS, then used for luciferase assay using the Promega Dual-Glo Luciferase Assay System or the Promega EnduRen Live Cell Substrate assay.
# Compound analysis was performed by quantification of the relative HCV replicon inhibition and the relative cytotoxicity values. To calculate cytoxicity values, the average Alamar Blue fluorescence signals from the control wells were set as 100% non-toxic. The individual signals in each of the compound test wells were then divided by the average control signal and multiplied by 100% to determine […]. To calculate the HCV replicon inhibition values, an average background value was obtained from the two wells containing the highest amount of HCV control inhibitor at the end of the assay period. These numbers were similar to those obtained from naïve Huh-7 cells. The background numbers were then subtracted from the average signal obtained from the control wells and this number was used as 100% activity. The individual signals in each of the compound test wells were then divided by the averaged control values after background subtraction and multiplied by 100% to determine percent activity. EC50 values were calculated as the concentration which caused a 50% reduction in FRET or luciferase activity. The two numbers generated for the compound plate, percent cytoxicity and percent activity, were used to determine compounds of interest for further analysis.
# HCV NS5B = target: T1, HCV NS5B (Hepatitis C virus genotype 1b, UniProt Q9WMX2); test: HCV NS5B RdRp enzyme assay; type: biochemical; conditions: HCV NS5B RdRp genotype 1b enzyme
# T1 construct: The protein was expressed with an 18 amino acid C-terminal truncation to enhance the solubility; made in house; host or cells: E. coli BL21(DE3)
# T1 sequence (Q9WMX2 2420-2992): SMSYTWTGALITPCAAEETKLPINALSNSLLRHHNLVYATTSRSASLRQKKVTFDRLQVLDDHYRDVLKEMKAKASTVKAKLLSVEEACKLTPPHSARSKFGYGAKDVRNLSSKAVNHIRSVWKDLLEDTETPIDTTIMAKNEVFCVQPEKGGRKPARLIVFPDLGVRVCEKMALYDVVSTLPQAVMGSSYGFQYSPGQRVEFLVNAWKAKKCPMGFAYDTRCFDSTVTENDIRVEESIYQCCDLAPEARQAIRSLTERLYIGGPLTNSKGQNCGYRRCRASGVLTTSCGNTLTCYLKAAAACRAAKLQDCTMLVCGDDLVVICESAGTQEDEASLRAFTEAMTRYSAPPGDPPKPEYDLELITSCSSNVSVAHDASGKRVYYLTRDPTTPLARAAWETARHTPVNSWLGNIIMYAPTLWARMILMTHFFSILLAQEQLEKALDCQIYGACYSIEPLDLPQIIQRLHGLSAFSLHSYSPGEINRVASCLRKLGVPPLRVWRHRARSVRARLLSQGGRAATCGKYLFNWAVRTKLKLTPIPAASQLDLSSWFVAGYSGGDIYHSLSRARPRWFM
# Protocol: HCV NS5B RdRp cloning, expression, and purification. The cDNA encoding the NS5B protein of HCV, genotype 1b, was cloned into the pET21a expression vector. The protein was expressed with an 18 amino acid C-terminal truncation to enhance the solubility. The E. coli competent cell line BL21(DE3) was used for expression of the protein. Cultures were grown at 37° C. for ˜4 hours until the cultures reached an optical density of 2.0 at 600 nm. The cultures were cooled to 20° C. and induced with 1 mM IPTG. Fresh ampicillin was added to a final concentration of 50 μg/ml and the cells were grown overnight at 20° C.
# Cell pellets (3 L) were lysed for purification to yield 15-24 mgs of purified NS5B. The lysis buffer consisted of 20 mM Tris-HCl, pH 7.4, 500 mM NaCl, 0.5% triton X-100, 1 mM DTT, 1 mM EDTA, 20% glycerol, 0.5 mg/ml lysozyme, 10 mM MgCl2, 15 ug/ml deoxyribonuclease I, and Complete™ protease inhibitor tablets (Roche). After addition of the lysis buffer, frozen cell pellets were resuspended using a tissue homogenizer. To reduce the viscosity of the sample, aliquots of the lysate were sonicated on ice using a microtip attached to a Branson sonicator. The sonicated lysate was centrifuged at 100,000×g for 1 hr at 4° C. and filtered through a 0.2 μm filter unit (Corning).
# The protein was purified using two sequential chromatography steps: Heparin sepharose CL-6B and polyU sepharose 4B (Pharmacia). The chromatography buffers were identical to the lysis buffer but contained no lysozyme, deoxyribonuclease I, MgCl2 or protease inhibitor and the NaCl concentration of the buffer was adjusted according to the requirements for charging the protein onto the column. Each column was eluted with a NaCl gradient which varied in length from 5-50 column volumes depending on the column type. After the final chromatography step, the resulting purity of the enzyme is >90% based on SDS-PAGE analysis. The enzyme was aliquoted and stored at −80° C.
# Standard HCV NS5B RdRp enzyme assay. HCV RdRp genotype 1b assays were run in a final volume of 60 μl in 96 well plates (Corning 3600). The assay buffer is composed of 20 mM Hepes, pH 7.5, 2.5 mM KCl, 2.5 mM MgCl2, 1 mM DTT, 1.6 U RNAse inhibitor (Promega N2515), 0.01 mg/ml BSA (Sigma B6917), and 2% glycerol. All compounds were serially diluted (3-fold) in DMSO and diluted further in water such that the final concentration of DMSO in the assay was 2%. HCV RdRp genotype 1b enzyme was used at a final concentration of 28 nM. A polyA template was used at 6 nM, and a biotinylated oligo-dT12 primer was used at 180 nM final concentration. Template was obtained commercially (Amersham 27-4110). Biotinylated primer was prepared by Sigma Genosys. 3H-UTP was used at 0.6 μCi (0.29 μM total UTP). Reactions were initiated by the addition of enzyme, incubated at 30° C. for 60 min, and stopped by adding 25 μl of 50 mM EDTA containing SPA beads (4 μg/μl, Amersham RPNQ 0007). Plates were read on a Packard Top Count NXT after >1 hr incubation at room temperature.
# Modified HCV NS5B RdRp enzyme assay. A modified enzyme assay was performed essentially as described for the standard enzyme assay except for the following: The biotinylated oligo dT12 primer was precaptured on streptavidin-coated SPA beads by mixing primer and beads in assay buffer and incubating at room temperature for one hour. Unbound primer was removed after centrifugation. The primer-bound beads were resuspended in 20 mM Hepes buffer, pH 7.5 and used in the assay at final concentrations of 20 nM primer and 0.67 μg/μl beads. Order of addition in the assay: enzyme (1.75 nM) was added to diluted compound followed by the addition of a mixture of template (0.36 nM), 3H-UTP (0.6 μCi, 0.29 μM), and primer-bound beads, to initiate the reaction; concentrations given are final. Reactions were allowed to proceed for 4 hours at 30° C.
# IC50 values for compounds were determined using seven different [I]. […]
SMILES,EC50 (HCV replicon cells) [nM],IC50 (HCV NS5B) [nM]
CCC1(S(=O)(=O)NC(=O)c2ccc3c(C4CCCCC4)c4n(c3c2)CC2(C(=O)N3C5CCC3CN(C)C5)CC2c2cc(OC)ccc2-4)CC1 (stereo not shown),4.2 to 500,4.2 to 500
COc1ccc2c(c1)C1CC1(C(=O)N1C3CCC1CN(C)C3)Cn1c-2c(C2CCCCC2)c2ccc(C(=O)NS(=O)(=O)C3(CC4CC4)CC3)cc21 (stereo not shown),4.2 to 500,4.2 to 500
COc1ccc2c(c1)C1CC1(C(=O)N1C3CCC1CN(C)C3)Cn1c-2c(C2CCCCC2)c2ccc(C(=O)NS(=O)(=O)Cc3ccccn3)cc21 (stereo not shown),4.2 to 500,4.2 to 500
COc1ccc2c(c1)C1CC1(C(=O)N1C3CCC1CN(C)C3)Cn1c-2c(C2CCCCC2)c2ccc(C(=O)NS(=O)(=O)Cc3cccc(Cl)c3)cc21 (stereo not shown),4.2 to 500,4.2 to 500
COc1ccc2c(c1)C1CC1(C(=O)N1C3CCC1CN(C)C3)Cn1c-2c(C2CCCCC2)c2ccc(C(=O)NS(=O)(=O)Cc3cc(Cl)cc(Cl)c3)cc21 (stereo not shown),4.2 to 500,4.2 to 500
COc1ccc2c(c1)C1CC1(C(=O)N1C3CCC1CN(C)C3)Cn1c-2c(C2CCCCC2)c2ccc(C(=O)NS(=O)(=O)c3sc(C)nc3C)cc21 (stereo not shown),4.2 to 500,4.2 to 500
COc1ccc2c(c1)C1CC1(C(=O)N1C3CCC1CN(C)C3)Cn1c-2c(C2CCCCC2)c2ccc(C(=O)NS(=O)(=O)c3nc[nH]n3)cc21 (stereo not shown),4.2 to 500,4.2 to 500
C=CS(=O)(=O)NC(=O)c1ccc2c(C3CCCCC3)c3n(c2c1)CC1(C(=O)N2C4CCC2CN(C)C4)CC1c1cc(OC)ccc1-3 (stereo not shown),4.2 to 500,4.2 to 500
COc1ccc2c(c1)C1CC1(C(=O)N1C3CCC1CN(C)C3)Cn1c-2c(C2CCCCC2)c2ccc(C(=O)NS(=O)(=O)C=C(C)C)cc21 (stereo not shown),4.2 to 500,4.2 to 500
COc1ccc2c(c1)C1CC1(C(=O)N1C3CCC1CN(C)C3)Cn1c-2c(C2CCCCC2)c2ccc(C(=O)NS(=O)(=O)c3ncccn3)cc21 (stereo not shown),4.2 to 500,4.2 to 500
COc1ccc2c(c1)C1CC1(C(=O)N1C3CCC1CN(C)C3)Cn1c-2c(C2CCCCC2)c2ccc(C(=O)NS(=O)(=O)c3nc(C)cc(C)n3)cc21 (stereo not shown),4.2 to 500,4.2 to 500
